Experimental data published in patent US5091547A, “Phenylacetic acid derivative and process for making same” (priority 1989, dated 1992).
Structures can show the parent of a compound that is named as a salt.

Columns and labels:
[1] = tested on: ulcerous lesions in the stomach and intestine; assay: Comparative ulcerogenic action, macroscopic lesion indices (Adami's criterion); format: in vivo, Female Wistar rats
Procedure: Group I: control (excipient) (n=8)
Group II: sodium salt 10 mg/kg (n=8)
Group IV: sodium salt 10 mg/kg+zinc sulphate 2.5 mg/kg (n=8) (equivalent doses).
The products were administered orally every day for four consecutive days. The animals were given no food during the 24 hours prior to the last dose.

[2] = tested on: ulcers induced by absolute ethanol; assay: Protective activity, ulcers induced by absolute ethanol; format: in vivo, rats
Excerpt: As explained previously, the compound of formula (I), which shall henceforth be referred to herein as LV-216, combines the advantage of anti-inflammatory and protective action.

[3] = acid as such; cited from earlier work

zinc compound of 2-(2,6-dichloroaniline)-phenylacetic acid [LV-216]
gastric tolerance (in words) ([1]; compared with sodium salt alone or in combination with zinc): surprisingly high degree of gastric tolerance, greater than that shown by the sodium salt administered alone or in combination with Zinc | t test of mm lesion versus control ([2]; 11 mg/kg, versus control): a (p < 0.01 versus control) | inhibition of ulcers induced by ethanol (protective action) ([2]; rats, doses of between 5 and 15 mg/kg): ≤ 80%

O=C(O)Cc1ccccc1Nc1c(Cl)cccc1Cl [sodium salt, sodium salt of 2-(2,6-dichloroaniline)-phenylacetic acid]
Macroscopic lesion index (x ± e) ([1]; oral, daily for four consecutive days, SS 10 mg/kg, LV-216 11 mg/kg, SS 10 mg/kg + zinc sulphate 2.5 mg/kg, n=8, control 0.4 ± 0.2): 4.0 ± 0.4 | t vs CONTROL (lesion index) ([1]; versus control): *** (p < 0.001) | ulcerous index versus control (in words) ([1]; versus control): statistically significant versus the control groups | mm lesion (lesion index) ([2]; LV-216 11 mg/kg, sodium salt at equimolecular dose, control 86.3 ± 9.4): 70.8 ± 8.2 mm | % inhibition of ulcers ([2]; versus control, LV-216 11 mg/kg, sodium salt at equimolecular dose): 17.9%

O=C(O)Cc1ccccc1Nc1c(Cl)cccc1Cl [2-(2,6-dichloroaniline)-phenylacetic acid]
inhibition of ulcers induced by absolute ethanol (in words) ([2]; equimolecular dose): does not inhibit the ulcers induced by absolute ethanol | Water solubility (in words, background) [3]: practically insoluble in water
